Test results taken from patent US12004506B2, “Pharmaceutical composition comprising a cyclic peptide of formula X1-[sequence]-X2 and use for extracorporeal lung treatment” (priority 2013, dated 2024).
Like-named read-outs stand apart in the source and are kept apart here. Bridges are numbered along the chain shown (N, C = ends). Where no end group is shown, it is not given here.

Tests used:
[1] = system: sodium ion current in A549 cells (deglycosylated cell surface); assay: Patch clamp assay, whole cell mode, on A549 cells deglycosylated with PNGase F; format: cell-based, human; details: 240 nM peptide, Eh -100 mV; for Whole cell current, pre-treatment with PNGase F: A549
Method: In whole cell mode experiments as described above, A549 cells were incubated with “PNGase enzyme F” (Peptide-N^4-(N-acetyl-β-D-glucosaminyl)asparagine amidase F) 100 units for 1-5 minutes immediately prior to the patch clamp measurements and glass cover slips with the cultured cells were rinsed with external solution before being transferred to the chamber of the 1 mL bath.
The results of the deglycosylation experiments using the patch clamp assay in whole cell mode are presented in Table IV, wherein the effect of deglycosylation of A549 cells on activation of sodium ion current by peptides of SEQ ID NO:1 to SEQ ID NO:7 is indicated. Whole cell currents were recorded at Eh=−100 mV.

[2] = system: sodium ion current in A549 cell line; details: for activity on sodium ion current (in words): A549, patch clamp
Method: Experiments were carried out on the human epithelial cell line A549 (ATTAC Nr. CCL-185) in passages 80-90. Cells were grown in Dulbecco's modified Eagle's medium/nutrient mixture F12 Ham, supplemented with 10% fetal bovine serum and containing 1% penicillin-streptomycin. All culture media were purchased from Sigma-Aldrich GmbH (St. Louis, MO).
Currents were recorded with the patch clamp method in the whole-cell mode. Glass cover slips with the cultured cells were transferred to a chamber of 1 ml capacity, mounted on the stage of an inverted microscope (Zeiss, Axiovert 100). The chamber contained 1 ml of the bath solution of the following composition (in mM): 145 NaCl, 2.7 KCl, 1.8 CaCl2), 2 MgCl2, 5.5 glucose and 10 HEPES, adjusted to pH 7.4 with 1 M NaOH solution. Micropipettes were pulled from thin-walled borosilicate glass capillaries (World Precision Instruments, Inc., FL, USA) with a Flaming Brown micropipette puller (P87, Sutter Instruments, CA, USA) and polished on a microforge (Narishige, Tokyo, Japan) to obtain electrode resistances ranging from 2.0 to 3.5 MΩ. […] Chemicals for pipette and bathing solutions were supplied by Sigma-Aldrich (Vienna, Austria). Electrophysiological measurements were carried out with an Axopatch 200B patch clamp amplifier (Axon Instruments, CA, USA). Capacity transients were cancelled, and series resistance was compensated. Whole cell currents were filtered at 5 kHz and sampled at 10 KHz. Data acquisition and storage were processed directly to a PC equipped with pCLAMP 10.0 software (Axon Instruments, CA, USA).
After GΩ-seal formation, the equilibration period of 5 min was followed by control recordings at holding potentials (Eh) between −100 and +100 mV in 20 mV increments for 1 min at each Eh. […] The wash-in phase lasted about 1 min. […] Concentration-response curves and EC50-values were fitted and estimated for currents recorded at Eh of −100 mV with SigmaPlot 9.0. […] Subsequent addition of 10 mM tetraethylammonium chloride (TEA) indicated whether any observed increases in the current were due to potassium current. […]

[3] = system: non-ischemic pig donor lung; assay: Ex vivo lung perfusion (EVLP) of non-ischemic pig donor lungs, inhalative application; details: pulmonary application
Method: Brain death pigs were turned into dorsal position, and a longitudinal sternotomy was performed. The pericardium and both pleural cavities were opened. […] An inflow catheter was placed in the pulmonary artery through a purse-string on the right ventricular outflow tract.
The lungs (non-ischemic) were then preserved with an ante grade flush of cold isotonic preservation solution (50 ml per kg body weigh of pig, containing potassium ions, sodium ions, magnesium ions, calcium ions, chloride ions, dextran, glucose, buffering ions) through the inflow catheter. Incision of the left auricular appendix provides outflow. The lungs were ventilated during this period with 50% oxygen, and iced slush were placed in both pleural cavities and mediastinum.
The explanation technique was en bloc harvesting with heart and esophagus according to the following steps: • a) Dissection of soft tissue bridges to the thoracic cavity on both sides of the trachea. • b) Transsection of both pulmonal ligaments (very deep, difficult exposure), then of the VCI, the lower thoracic descendent aorta and the esophagus, respectively. • c) Blunt separation from remaining mediastinal adhesions. • d) Complete inflation of the donor lung prior of tracheal closure with a stapler.
After explantation, the lungs were wrapped in gauze, placed in an insulated ice bag filled with low-potassium dextran extracellular solution, and stored at 4° C. for 18 to 24 hours. A temperature probe was submerged in the container, which will be placed in a refrigerator.
For ex-vivo lung conditioning, the EVLP technique ([…]) was used. In the EVLP technique, donor lungs are placed into a circuit composed of a pump, ventilator and filters. EVLP technique, the temperature may increased up to 37 °C. In the EVLP, a ventilator is used to deliver oxygen to the lungs. The pump is used to perfuse the lungs with an extracellular solution containing human albumin and nutrition. During EVLP, the lung function can be evaluated regularly on key indicators. […]

[4] = system: sodium ion current in A549 cells (deglycosylated cell surface); assay: Patch clamp assay, whole cell mode, on A549 cells deglycosylated with PNGase F; format: cell-based, human; details: 240 nM peptide, Eh -100 mV

Compound | Whole cell current, pre-treatment with PNGase F [1] | further results
C[C@@H]1NC(=O)CNC(=O)[C@H](CCC(=O)O)NC(=O)[C@@H]2CCCN2C(=O)[C@H]([C@@H](C)O)NC(=O)[C@H](CCC(=O)O)NC(=O)[C@H](CCCNC(=N)N)NC(=O)[C@H](CCC(N)=O)NC(=O)CNC(=O)[C@@H]2CCCN2C(=O)[C@H](CO)NC(=O)[C@@H](N)CCCCNC(=O)CC[C@@H](C(=O)O)NC(=O)[C@H](Cc2ccc(O)cc2)NC(=O)[C@H](Cc2c[nH]c3ccccc23)NC(=O)[C@@H]2CCCN2C(=O)[C@H](CCCCN)NC(=O)[C@H](C)NC(=O)[C@H](CCC(=O)O)NC1=O [SEQ ID NO: 2] | 21.3 pA (n = 3) | 
C[C@@H]1NC(=O)CNC(=O)[C@H](CCC(=O)O)NC(=O)[C@@H]2CCCN2C(=O)[C@H]([C@@H](C)O)NC(=O)[C@H](CCC(=O)O)NC(=O)[C@H](CCCNC(=N)N)NC(=O)[C@H](CCC(N)=O)NC(=O)CNC(=O)[C@@H](N)CCCCNC(=O)CNC(=O)[C@H](Cc2ccc(O)cc2)NC(=O)[C@H](Cc2c[nH]c3ccccc23)NC(=O)[C@@H]2CCCN2C(=O)[C@H](CCCCN)NC(=O)[C@H](C)NC(=O)[C@H](CCC(=O)O)NC1=O [SEQ ID NO: 3] | 20.6 pA (n = 3) | 
C[C@@H]1NC(=O)CNC(=O)[C@H](CCC(=O)O)NC(=O)[C@@H]2CCCN2C(=O)[C@H]([C@@H](C)O)NC(=O)[C@H](CCC(=O)O)NC(=O)[C@H](CCCNC(=N)N)NC(=O)[C@H](CCC(N)=O)NC(=O)CNC(=O)[C@@H](N)CCCNC(=O)CNC(=O)[C@H](Cc2ccc(O)cc2)NC(=O)[C@H](Cc2c[nH]c3ccccc23)NC(=O)[C@@H]2CCCN2C(=O)[C@H](CCCCN)NC(=O)[C@H](C)NC(=O)[C@H](CCC(=O)O)NC1=O [SEQ ID NO: 4] | 22.5 pA (n = 3) | 
C[C@@H]1NC(=O)CNC(=O)[C@H](CCC(=O)O)NC(=O)[C@@H]2CCCN2C(=O)[C@H]([C@@H](C)O)NC(=O)[C@H](CCC(=O)O)NC(=O)[C@H](CCCNC(=N)N)NC(=O)[C@H](CCC(N)=O)NC(=O)CNC(=O)CCCNC(=O)C[C@@H](C(=O)O)NC(=O)[C@H](Cc2ccc(O)cc2)NC(=O)[C@H](Cc2c[nH]c3ccccc23)NC(=O)[C@@H]2CCCN2C(=O)[C@H](CCCCN)NC(=O)[C@H](C)NC(=O)[C@H](CCC(=O)O)NC1=O [SEQ ID NO: 5] | 22.4 pA (n = 3) | 
C[C@@H]1NC(=O)CNC(=O)[C@H](CCC(=O)O)NC(=O)[C@@H]2CCCN2C(=O)[C@H]([C@@H](C)O)NC(=O)[C@H](CCC(=O)O)NC(=O)[C@H](CCCNC(=N)N)NC(=O)[C@H](CCC(N)=O)NC(=O)CNC(=O)CCNC(=O)CC[C@@H](C(=O)O)NC(=O)[C@H](Cc2ccc(O)cc2)NC(=O)[C@H](Cc2c[nH]c3ccccc23)NC(=O)[C@@H]2CCCN2C(=O)[C@H](CCCCN)NC(=O)[C@H](C)NC(=O)[C@H](CCC(=O)O)NC1=O [SEQ ID NO: 6] | 19.9 pA (n = 3) | 
Cyclo(CGQREAPAGAAAKPWYC) (disulfide 1-17) [SEQ ID NO: 7, reference compound] | no avtivity | activity on sodium ion current (in words) [2]: no activity; activity on sodium ion current (in words) ([2]; listed as SEQ ID NO:7): did not show activity; EC50 (nM) on cellular sodium ion current ([2]; A549, whole cell recording, Eh -100 mV): no activity; effects on lung function [3]: did not provide improving effects; activity in deglycosylation experiments (in words) [1]: no activity; Whole cell current, no pre-treatment with PNGase F [4]: no activity
